The METLIN SMRT retention time set (Domingo-Almenara et al. 2019)

Assay: gradient 5% acetonitrile 3 min, to 50% in 2 min, to 85% in 15 min, held 3 min, 100 µL/min
Details: column: Zorbax Extend-C18 2.1 x 50 mm; eluents: water / acetonitrile, 0.1% formic acid
In short: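 Over 3 months, pure standards in mixtures of ~100 molecules were run by HPLC coupled to a quadrupole time-of-flight mass spectrometer in positive and negative ionization mode. The column was a Zorbax Extend-C18 (2.1 × 50 mm, 1.8 μm) at 100 μL/min, eluted with water and acetonitrile each holding 0.1% formic acid, with 40 μL dead and 900 μL dwell volumes. Retention time was determined from adduct peaks chosen by software and checked manually.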

First: OC[C@H]1O[C@@H](n2cnc3c(NC4CCCC4)nc(Cl)nc32)[C@@H](O)C1O (stereo partly specified)
Second: CC1(C(=O)NCc2ccccc2)CCCN(C(=O)NC2CCCCC2)C1 (stereo unspecified)
The RP-LC retention time of the first is lower: 713 s for the first, 857 s for the second.

First: COc1ccc2c(C)c(CCC(=O)N3CCC(C(N)=O)CC3)c(=O)oc2c1
Second: COc1ccc(NC(=O)CN2C(=O)C3CCCN3C(=O)c3ccc(F)cc32)cc1 (stereo unspecified)
The RP-LC retention time of the first is lower: 645 s for the first, 693 s for the second.

Compared with `O=C(Cn1cccc1-c1nnc(-c2ccccc2)o1)Nc1cccc(Cl)c1`, `O=c1ccn(-c2ccc(F)c(F)c2)nc1-c1nc(-c2ccccc2)no1` is lower in RP-LC retention time: 1050 s for the first, 878 s for the second.

Compared with `COc1ccc(-n2c(=O)c(C(=O)NCc3cc(F)cc(F)c3)c(O)c3cccnc32)cc1`, `O=C(Cn1c(=O)c2cc(-c3cccs3)nn2c2ncccc21)NCc1ccc(Cl)cc1` is lower in RP-LC retention time: 1170 s for the first, 885 s for the second.

First: COCCCNc1ncc(C(=O)O)c(-c2ccccc2)n1
Second: Cc1cc(C)nc(SCC(=O)Nc2cccc3ccccc23)n1
The RP-LC retention time of the first is higher: 804 s for the first, 779 s for the second.

First: CNC(=O)c1cc(C)nc2c(C)cccc12
Second: CCc1ccccc1NC(=O)N1CCCC1c1cc(C)on1 (stereo unspecified)
The RP-LC retention time of the first is lower: 570 s for the first, 774 s for the second.

Compared with `COc1ccccc1N1CCN(C(=O)C2CCCN(c3cnc4nccnc4c3)C2)CC1` (stereo unspecified), `Cc1ccc(Cl)cc1NC(=O)CSc1cc(N2CCN(c3ccccc3F)CC2)ncn1` is higher in RP-LC retention time: 688 s for the first, 1280 s for the second.

Compared with `CCCNC(=O)CC1Sc2ncccc2N(CC(C)C)C1=O` (stereo unspecified), `CCN1C(=O)c2cccnc2Sc2cc(C(=O)NCc3ccccc3F)ccc21` is higher in RP-LC retention time: 723 s for the first, 803 s for the second.

First: O=C(Nc1nnc(SCc2nnc(-c3ccc4c(c3)OCO4)o2)s1)C1CC1
Second: Cc1oc(-c2ccc(NC(=O)C3CCC3)cc2)nc1Cn1cccn1
The RP-LC retention time of the first is lower: 750 s for the first, 799 s for the second.

Compared with `CCc1nn(CC)c(=O)c2cc(S(=O)(=O)NCc3ccc(Cl)cc3)cn12`, `Cc1csc(-c2cc(S(=O)(=O)Nc3ccc(F)c(F)c3)cn2CC(=O)N2CCCC2)n1` is lower in RP-LC retention time: 989 s for the first, 927 s for the second.

Compared with `CC(C)NC(=O)C1CCCN(C(=O)Nc2ccc(NC(=O)Nc3ccccc3F)cc2)C1` (stereo unspecified), `CCCNC(=O)C1CCCN(c2ccc(SCC(=O)Nc3ccc(OC)c(Cl)c3)nn2)C1` (stereo unspecified) is lower in RP-LC retention time: 735 s for the first, 688 s for the second.

First: OC1(c2ccccn2)CCOC2(CCN(Cc3cccc(Cl)c3F)CC2)C1 (stereo unspecified)
Second: O=C(Cn1nc2c(N3CCCCCC3)nccn2c1=O)NCc1ccc(F)cc1
The RP-LC retention time of the first is lower: 576 s for the first, 691 s for the second.

Compared with `COc1ccccc1-n1ccn(Cc2nc(-c3ccc(Cl)cc3)no2)c(=O)c1=O`, `COc1ccc(/C(=N/O)C(c2ccc(OC)cc2)C2C(=O)Oc3ccccc32)cc1` (stereo unspecified) is lower in RP-LC retention time: 874 s for the first, 840 s for the second.

First: CCCCCNC(=O)c1ccc2c(c1)CCCN2S(=O)(=O)CC
Second: Cc1cc(C)c2c(N3CCSCC3)nc(C(=O)NCCN3CCCC3)nc2n1
The RP-LC retention time of the first is higher: 896 s for the first, 600 s for the second.

Compared with `CCOc1cc2c(cc1OCC)C1C(C(=O)NCc3ccc(C)o3)c3ccccc3C(=O)N1CC2` (stereo unspecified), `Cc1cc(N2C=C(C(=O)N3CCOCC3)S(=O)(=O)c3ccccc32)ccc1Br` is lower in RP-LC retention time: 894 s for the first, 855 s for the second.

Going from `CCn1cc(-c2ccnc3[nH]c(-c4cccc(CN(C)C)c4)cc23)c(-c2ccc(NC(=O)N(C)C)cc2)n1` to `CCN1CCN(C(=O)Cc2c(C)nn(-c3nc(-c4ccc(C)cc4)cs3)c2C)CC1`, the RP-LC retention time rises from 632 s to 730 s.

First: CCn1ncc(Cl)c1C(=O)N1CCCC1c1cccc(F)c1 (stereo unspecified)
Second: O=C(NCc1ccc(F)cc1)N1CC(F)(F)C[C@H]1c1nnc(-c2cnccn2)o1
The RP-LC retention time of the first is higher: 922 s for the first, 747 s for the second.

First: CCC1(O)C(=O)OCc2c1cc1n(c2=O)Cc2cc3c(N)cccc3nc2-1 (stereo unspecified)
Second: CC1CN=C2C=C(N3CCN(C(=O)CCc4ccccc4)CC3)N=CN21 (stereo unspecified)
The RP-LC retention time of the first is higher: 632 s for the first, 620 s for the second.
